Assay results as given in patent publication US9248119B2, “Modified release dosage forms of xanthine oxidoreductase inhibitor or xanthine oxidase inhibitors” (Takeda Pharmaceuticals U.S.A., Inc., priority 2010, dated 2016).
Where two headings read alike, the source gives them in different places.

Tests used:
[1] = Bioavailability of febuxostat released in various locations of the gastrointestinal tract (site of absorption study); format: in vivo, human; details: humans
Experimental: Subjects all received regimens in a crossover fashion according to a randomization schedule. Extra periods (up to 2 per subject) were added where subject dose release issues required repeating a regimen. There was a washout interval of at least 7 days between the dose in a period and the next dose in the subsequent period.
The method utilizes protein precipitation with acetonitrile of a 100-μL aliquot of plasma, with a lower limit of detection of 10.0 ng/mL.
Pharmacokinetic parameters for febuxostat were estimated using standard noncompartmental methods. Calculations were performed using the WinNonlin Pro Version 5.2 (Mountain View, Calif., USA). The descriptive statistics for pharmacokinetic parameter estimates were computed. […] The subjects who had improper capsule release were allowed to repeat up to two extra periods after their scheduled sequence had ended. For ANOVA purposes, the missing or incomplete data from the periods with improper capsule release was replaced by the data from the corresponding repeated periods using the originally planned period for that regimen.

[2] = Phase 1 single-dose 5-way crossover study of four extended release and one immediate release febuxostat formulation; format: in vivo, human; details: all subjects, all formulations
Excerpt: This examples describes the results of a phase 1, single-center, open-label, randomized, 5-way crossover study. Thirty-five adult male and female subjects aged 18 to 55 years, inclusive, in good health, were selected to participate in this study.

[3] = molecular target: T1, albumin (Homo sapiens, UniProt P02768); test: Binding to albumin in the blood; format: in vitro ADME
T1 construct: from tissue; host or cells: blood / plasma
T1 sequence (P02768 25-609): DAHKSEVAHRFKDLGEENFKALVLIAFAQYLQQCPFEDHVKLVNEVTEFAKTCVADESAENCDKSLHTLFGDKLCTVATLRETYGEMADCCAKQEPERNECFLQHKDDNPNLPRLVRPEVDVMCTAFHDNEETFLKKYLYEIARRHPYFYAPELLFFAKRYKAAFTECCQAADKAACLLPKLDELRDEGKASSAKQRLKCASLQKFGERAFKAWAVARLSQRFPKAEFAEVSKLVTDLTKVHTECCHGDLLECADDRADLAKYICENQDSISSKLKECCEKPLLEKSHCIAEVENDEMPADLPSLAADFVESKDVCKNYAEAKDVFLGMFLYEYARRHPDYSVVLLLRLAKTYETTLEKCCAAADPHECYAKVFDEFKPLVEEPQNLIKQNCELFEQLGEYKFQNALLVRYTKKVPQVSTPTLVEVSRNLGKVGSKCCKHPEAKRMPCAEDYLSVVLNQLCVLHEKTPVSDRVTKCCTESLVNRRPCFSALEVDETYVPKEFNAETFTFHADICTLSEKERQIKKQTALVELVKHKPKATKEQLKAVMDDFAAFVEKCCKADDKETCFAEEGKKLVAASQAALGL

[4] = test system: uric acid; test: Pharmacodynamics in Phase 1 dose escalation study: uric acid levels; format: in vivo, human
Experimental: Samples were analyzed by high performance liquid chromatography.

[5] = Absorption of febuxostat from various regions of the gastro-intestinal tract in rats; format: in vivo, rat
Excerpt: The pharmacokinetic data obtained in the clinical trial referenced above was subsequently used to develop estimated plasma profiles for various febuxostat formulations, including extended release matrix tablets, two-pulse febuxostat formulations, and three-pulse febuxostat formulations. The estimated extended release formulation data was based on a matrix formulation incorporating one or more polymers, and the estimated two-pulse and three-pulse formulation data was based on a formulation incorporating two or more types of beads with differing release profiles. This information and methodology is discussed in Example 2. Additionally, as part of the development process for an extended release febuxostat formulation, various sites of absorption were investigated to determine the optimal physiologic sites of drug absorption for an extended release febuxostat formulation. In early pre-clinical studies, absorption of febuxostat from various regions of the gastro-intestinal tract was studied in rats. […] To guide development of a dosage form that provided the desired plasma concentration-time profile, a site of absorption study was conducted in humans.

[6] = molecular target: T2, xanthine oxidase (Homo sapiens, UniProt P47989)
T2 sequence (P47989 whole entry): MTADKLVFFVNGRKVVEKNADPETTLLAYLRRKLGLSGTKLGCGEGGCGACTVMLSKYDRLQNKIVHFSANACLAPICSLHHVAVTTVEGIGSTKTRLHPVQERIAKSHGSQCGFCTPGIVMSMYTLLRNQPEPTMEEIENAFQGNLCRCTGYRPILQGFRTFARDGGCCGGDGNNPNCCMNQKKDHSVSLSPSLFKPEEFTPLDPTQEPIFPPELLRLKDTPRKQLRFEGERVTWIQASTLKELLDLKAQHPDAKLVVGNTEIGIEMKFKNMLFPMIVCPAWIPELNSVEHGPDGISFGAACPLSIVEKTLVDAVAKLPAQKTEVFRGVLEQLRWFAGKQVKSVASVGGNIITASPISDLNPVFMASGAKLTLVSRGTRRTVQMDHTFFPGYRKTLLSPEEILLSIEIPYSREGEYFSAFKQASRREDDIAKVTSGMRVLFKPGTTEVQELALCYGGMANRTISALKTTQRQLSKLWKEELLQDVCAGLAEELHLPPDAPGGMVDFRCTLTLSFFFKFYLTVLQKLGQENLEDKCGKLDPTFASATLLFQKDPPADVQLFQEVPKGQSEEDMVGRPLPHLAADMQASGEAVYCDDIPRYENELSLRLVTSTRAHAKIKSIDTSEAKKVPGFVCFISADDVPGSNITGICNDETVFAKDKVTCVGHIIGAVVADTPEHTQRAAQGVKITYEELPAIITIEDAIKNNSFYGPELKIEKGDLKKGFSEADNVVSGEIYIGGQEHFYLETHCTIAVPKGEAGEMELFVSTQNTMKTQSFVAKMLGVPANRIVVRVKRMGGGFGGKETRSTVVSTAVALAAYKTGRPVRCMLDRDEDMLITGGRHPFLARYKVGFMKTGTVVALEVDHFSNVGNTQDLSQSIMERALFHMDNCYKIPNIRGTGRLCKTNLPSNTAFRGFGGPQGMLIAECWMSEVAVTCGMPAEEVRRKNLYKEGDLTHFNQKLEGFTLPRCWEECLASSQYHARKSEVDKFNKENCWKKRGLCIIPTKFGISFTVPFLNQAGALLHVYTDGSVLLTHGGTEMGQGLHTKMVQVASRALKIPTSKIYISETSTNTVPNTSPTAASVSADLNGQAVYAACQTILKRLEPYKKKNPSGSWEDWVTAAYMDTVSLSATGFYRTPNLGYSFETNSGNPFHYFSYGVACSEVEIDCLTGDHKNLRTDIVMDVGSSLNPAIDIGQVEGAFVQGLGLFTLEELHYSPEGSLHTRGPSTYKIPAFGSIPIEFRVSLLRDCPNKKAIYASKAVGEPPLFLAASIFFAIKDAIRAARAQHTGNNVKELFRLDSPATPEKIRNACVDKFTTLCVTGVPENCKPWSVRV

[7] = molecular target: T2, xanthine oxidase; remark: listed apart in the source
[8] = cited from earlier work; for fu (free fraction in plasma): in %
[9] = clinical; details: human, plasma, po
[10] = normal patients, 14C, nominal 1 μg/mL
[11] = patients with severe renal impairment

For `Cc1nc(-c2ccc(OCC(C)C)c(C#N)c2)sc1C(=O)O` [Febuxostat, 2-[3-cyano-4-(2-methylpropoxy)phenyl]-4-methylthiazole-5-carboxylic acid], the “absorption in the colon compared to immediate release, proximal intestine and distal intestine” value [1] was “approximately 40%”, the “absorption lag-time after oral dosing” value [2] was “no absorption lag-time” and the “bound to albumin in the blood” value [3] was roughly 99.3%. The “lowering uric acid levels” value ([4]; 30 mg twice daily compared with once daily 120 mg) was “as effective”, the “serum uric acid concentrations” value ([4]; IR, once a day, as little as 10 mg, healthy subjects) was “lowers concentrations of uric acid” and the “inhibition of uric acid levels” value ([4]; in vivo febuxostat concentrations at or above 100 ng/mL (0.1 μg/mL)) was no less than 80%. For the same compound, the “absorption from the colonic region” value [5] was “very poor”, the “Percentage Inhibition of xanthine oxidase” value (“Percentage Inhibition” below) ([6]; IR 10 mg QD, 8 hours post dose) was 43.6% and the “Percentage Inhibition” value ([6]; IR 10 mg QD, 12 hours post dose) was 27.3%. For the same compound, the “Percentage Inhibition” value ([6]; IR 10 mg QD, 16 hours post dose) was 0%, the “Percentage Inhibition” value ([6]; IR 10 mg QD, 24 hours post dose) was 0% and the “Percentage Inhibition” value ([6]; IR 20 mg QD, 8 hours post dose) was 55.9%. The “Percentage Inhibition” value ([6]; IR 20 mg QD, 12 hours post dose) was 54.0%, the “Percentage Inhibition” value ([6]; IR 20 mg QD, 16 hours post dose) was 42.8% and the “Percentage Inhibition” value ([6]; IR 20 mg QD, 24 hours post dose) was 0%. The “Percentage Inhibition” value ([6]; IR 30 mg QD, 8 hours post dose) was 62.3%, the “Percentage Inhibition” value ([6]; IR 30 mg QD, 12 hours post dose) was 52.5% and the “Percentage Inhibition” value ([6]; IR 30 mg QD, 16 hours post dose) was 37.1%. The “Percentage Inhibition” value ([6]; IR 30 mg QD, 24 hours post dose) was 35.9%, the “Percentage Inhibition” value ([6]; IR 40 mg QD, 8 hours post dose) was 69.8% and the “Percentage Inhibition” value ([6]; IR 40 mg QD, 12 hours post dose) was 55.9%. For the same compound, the “Percentage Inhibition” value ([6]; IR 40 mg QD, 16 hours post dose) was 43.3%, the “Percentage Inhibition” value ([6]; IR 40 mg QD, 24 hours post dose) was 36.2% and the “Percentage Inhibition” value ([6]; IR 50 mg QD, 8 hours post dose) was 77.9%. The “Percentage Inhibition” value ([6]; IR 50 mg QD, 12 hours post dose) was 64.9%, the “Percentage Inhibition” value ([6]; IR 50 mg QD, 16 hours post dose) was 49.1% and the “Percentage Inhibition” value ([6]; IR 50 mg QD, 24 hours post dose) was 38.5%. For the same compound, the “Percentage Inhibition” value ([6]; IR 70 mg QD, 8 hours post dose) was 81.2%, the “Percentage Inhibition” value ([6]; IR 70 mg QD, 12 hours post dose) was 66.3% and the “Percentage Inhibition” value ([6]; IR 70 mg QD, 16 hours post dose) was 56.0%. The “Percentage Inhibition” value ([6]; IR 70 mg QD, 24 hours post dose) was 35.3%, the “Percentage Inhibition” value ([6]; IR 90 mg QD, 8 hours post dose) was 85.6% and the “Percentage Inhibition” value ([6]; IR 90 mg QD, 12 hours post dose) was 77.7%. The “Percentage Inhibition” value ([6]; IR 90 mg QD, 16 hours post dose) was 68.1%, the “Percentage Inhibition” value ([6]; IR 90 mg QD, 24 hours post dose) was 50.3% and the “Percentage Inhibition” value ([6]; IR 120 mg QD, 8 hours post dose) was 89.0%. For the same compound, the “Percentage Inhibition” value ([6]; IR 120 mg QD, 12 hours post dose) was 82.6%, the “Percentage Inhibition” value ([6]; IR 120 mg QD, 16 hours post dose) was 75.8% and the “Percentage Inhibition” value ([6]; IR 120 mg QD, 24 hours post dose) was 60.5%. For the same compound, the “time for which at least 80% inhibition of xanthine oxidase is provided” value ([6]; IR 120 mg, Table 2) was no more than 16 h, the “Percentage Inhibition” value ([6]; IR 160 mg QD, 8 hours post dose) was 93.9% and the “Percentage Inhibition” value ([6]; IR 160 mg QD, 12 hours post dose) was 90.9%. For the same compound, the “Percentage Inhibition” value ([6]; IR 160 mg QD, 16 hours post dose) was 81.4%, the “Percentage Inhibition” value ([6]; IR 160 mg QD, 24 hours post dose) was 67.6% and the “Percentage Inhibition” value ([6]; IR 180 mg QD, 8 hours post dose) was 94.7%. For the same compound, the “Percentage Inhibition” value ([6]; IR 180 mg QD, 12 hours post dose) was 91.7%, the “Percentage Inhibition” value ([6]; IR 180 mg QD, 16 hours post dose) was 81.5% and the “Percentage Inhibition” value ([6]; IR 180 mg QD, 24 hours post dose) was 68.4%. The “Percentage Inhibition” value ([6]; IR 240 mg QD, 8 hours post dose) was 95.7%, the “Percentage Inhibition” value ([6]; IR 240 mg QD, 12 hours post dose) was 91.4% and the “Percentage Inhibition” value ([6]; IR 240 mg QD, 16 hours post dose) was 86.5%. For the same compound, the “Percentage Inhibition” value ([6]; IR 240 mg QD, 24 hours post dose) was 72.4%, the “time with at least 80% inhibition of xanthine oxidase” value ([7]; 120 mg immediate release dosage forms, other studies) was roughly 14 h and the “time with at least 80% inhibition of xanthine oxidase” value ([7]; 240 mg immediate release dosage forms, further studies) was “about 22 hours”. For the same compound, the “percent free fraction of febuxostat in plasma” value ([8]; male, female, younger and elderly group of subjects) was 0.7±0.1%, the percent fu [8, 10] was 0.9±0.2% and the “fu (free fraction in plasma)” value [8, 10] was 0.9±0.2. For the same compound, the percent fu [8, 11] was 1.2±0.2%, the “fu (free fraction in plasma)” value [8, 11] was 1.2±0.2 and the Cmax ([9]; 120 mg) was roughly 3900 ng/mL. It also gave a Cmax ([9]; 240 mg) of 10200 ng/mL.
